We go through one molecule from US20060205749A1, “Remedy and/or preventive for lung diseases” (priority 2003, published 2006).

Experiment [1] relates to neutrophils in BALF, mainstream of cigarette smoke induced pulmonary injury model. The experiment in a line: Inhibitory effect on increase of neutrophils in mainstream of cigarette smoke induced pulmonary injury model. The note with it: male CD rats, 0.3 mg/body orally 10 to 12 hours before exposure to mainstream of cigarette smoke, BAL after the exposure for 6 hours. The class given is in vivo. The procedure: Compound (I) was suspended to the concentration of 0.6 mg/mL in a physiological saline containing 25% Alevaire (registered trademark, Azwell, Osaka), which is an inhalant for respiratory organs, (administration solvent). The suspension was used for the test. The suspension is referred to as a “suspension for the administration of Compound (I)”.
First, 0.5 mL of the administration solvent or the suspension for the administration of Compound (I) per kilogram of body weight was administered orally to male CD rats aged 6 to 7 weeks (Charles River Japan, Kanagawa). After 10 to 12 hours, the rats were systemically exposed to mainstream of cigarette smoke (Hi-Lite, Japan Tobacco Inc., Tokyo) using a smoking exposure instrument (M•I•P•S, Osaka). The exposure to the mainstream of cigarette smoke for 5 minutes and then exposure to air for 10 minutes were successively performed by repeating them eight times.
A group subjected to the administration of the administration solvent and exposure to air instead of mainstream of cigarette smoke is referred to as a “solvent administration group”. […]
After the exposure for 6 hours, BALs were performed with Hanks' solution [Hanks' Balanced Salt Solution (Invitrogen Corporation, CA, USA)] […] All of the BALFs were recovered and subjected to treatment as in Test example 1, and then the numbers of neutrophils were measured. […]

The subject of experiment [2] is neutrophils in BALF, lipopolysaccharide (LPS)-induced pulmonary injury model. The experiment can be described thus: Inhibitory effect on increase of neutrophils in LPS-induced pulmonary injury model. The class given is in vivo. To be noted: male BALB/c mice, 0.1 mg/body intratracheally together with LPS, BAL 6 hours after administration. The procedure:
Physiological saline containing 25% Alevaire (registered trademark, Azwell Inc., Osaka) which is an inhalant for respiratory organs (administration solvent), or administration solvent dissolving 300 ng/mL of LPS (manufactured by Sigma-Aldrich, Mo., USA) were administered intratracheally to 9-week-old male BALB/c mice (Charles River Japan, Kanagawa) in an amount of 0.1 mL respectively. Then bronchoalveolar lavages (BALS) were performed 6 hours after the intratracheal administration (These administration groups were referred to as a “solvent administration group” and an “LPS administration group”, respectively). […]
The recovered bronchoalveolar lavage fluids (BALFS) were centrifuged at 570×g for 10 minutes at 4° C., followed by removal of supernatants to obtain pellets. […] The total numbers of leukocytes were counted with an automatic blood cell counter Celltac α (Nihon Kohden Corporation, Tokyo). […] Then, the numbers of cells were counted under a microscope (400×).
The number of cells was counted up to 300 in total while macrophages, neutrophils and lymphocytes were distinguished. Then, the ratio of each cell was calculated (equation 1). The number of neutrophils was calculated from the ratio of neutrophils and the total number of leukocytes (equation 2). The inhibition ratio of the increase in number of neutrophils by the administration of Compound (I) was calculated by equation 3. […]

`COc1ccc(C(=O)Cc2c(Cl)cncc2Cl)c2c1OC1(CCCC1)O2` [Compound (I), 7-[2-(3,5-dichloro-4-pyridyl)-1-oxoethyl]-4-methoxy-spiro[1,3-benzodioxol-2,1′-cyclopentane]]: in experiment [1], the “Inhibition ratio of increase in number of neutrophil” value is recorded as 81%. Also, the Number of neutrophils in experiment [1] (mean ± standard error) is 0.34 ± 0.13 ×10^5 cells/BALF; in experiment [2] (mean ± standard error), 0.72 ± 0.22 ×10^5 cells/BALF. Moreover, in experiment [2] (equation 3), the “Inhibition ratio of increase in number of neutrophils” value is given as 47%.
